# Assay results reported in ChEMBL document CHEMBL5614455, “Novel Azepino[4,5-b]indolone as cGAS Inhibitors for Treating Immune-Mediated Diseases” (ACS Med Chem Lett, 2024).
# Target: Cyclic GMP-AMP synthase (Homo sapiens, UniProt Q8N884)
# Assay: Inhibition of full length his-tagged human recombinant cGAS extracted from Escherichia coli BL21 (DE3) incubated for 3 hrs by rapidfire 365 mass spectrometry analysis
# Chain of Cyclic GMP-AMP synthase (Q8N884 whole entry): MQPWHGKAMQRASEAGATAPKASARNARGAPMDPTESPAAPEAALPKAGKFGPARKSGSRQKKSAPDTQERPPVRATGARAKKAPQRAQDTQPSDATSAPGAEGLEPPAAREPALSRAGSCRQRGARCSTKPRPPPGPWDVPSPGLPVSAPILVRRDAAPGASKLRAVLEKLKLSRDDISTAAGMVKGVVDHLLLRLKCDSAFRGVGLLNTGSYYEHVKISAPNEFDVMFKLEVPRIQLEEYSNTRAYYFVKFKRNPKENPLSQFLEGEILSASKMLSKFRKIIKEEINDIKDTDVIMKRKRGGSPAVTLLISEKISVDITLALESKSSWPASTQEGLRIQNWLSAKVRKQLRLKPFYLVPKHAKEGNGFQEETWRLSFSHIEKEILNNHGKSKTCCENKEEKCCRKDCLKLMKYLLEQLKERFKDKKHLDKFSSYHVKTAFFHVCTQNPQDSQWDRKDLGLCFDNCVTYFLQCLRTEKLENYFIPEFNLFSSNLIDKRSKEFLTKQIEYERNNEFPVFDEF
row,IC50 [nM],Compound
1,8,COCC[C@@H]1CNC(=O)[C@@H](C)c2c1[nH]c1c(Cl)c(Cl)cc(NCCO)c21
2,8,CC(F)(F)C[C@@H]1CNC(=O)Cc2c1[nH]c1c(Cl)c(Cl)cc(CC#N)c21
3,7,C[C@@H]1C(=O)NCCc2[nH]c3c(Cl)c(Cl)cc(OCCCO)c3c21
4,5,Cn1ncc(-c2cc(Cl)c(Cl)c3[nH]c4c(c23)CC(=O)NCC4CC(=O)O)n1 (stereo unspecified)
5,8,COCCCOc1cc(Cl)c(Cl)c2[nH]c3c(c12)[C@H](C)C(=O)NCC3
6,2,C[C@@H]1C(=O)NCCc2[nH]c3c(Cl)c(Cl)cc(OCC#N)c3c21
